Experiments:
[1] = Competition for free NAD+ with GAPDH, sensor fluorescence in real time; type: binding; conditions: equimolar GAPDH, absence of substrate, 10 μM NAD+
Protocol: Fluorescence emission of […] purified sensor was monitored at 520 nm following excitation at 488 nm over time. Three 1-second exposures were obtained every 30 seconds at 20° C. in 100 mM HEPES pH7.4, 150 mM NaCl, 10 mM MgCl2. At the 240 timepoint, NAD+ was added to a final concentration of 10 μM; at the 600 second timepoint, full-length active human GAPDH (AbCam) was added to a final concentration of 11.7 μM. Fluorescence measurements were corrected for dilution factor. Mean±SD, n=2.

NAD+ sensor = biological target: T1, NAD+ sensor (Enterococcus faecalis, UniProt Q837V6, D286N/K120L); assay: Specificity of the sensor: fluorescence with related mononucleotides, dinucleotides and NAD+ precursors; type: binding; conditions: purified sensor
T1 construct: HA (N); made in house; host or cells: HEK293T
Protocol: To determine the specificity of the sensor for NAD+, sensor fluorescence was evaluated in the presence of related mononucleotides, dinucleotides, and NAD+ precursors (FIG. 14G). […] Thus, pH effects can be accommodated by normalizing to cpVenus. […] (FIG. 24A, 24B, 24C).
(§1) Steady-state fluorescence intensity measurements were performed using a Photon Technology International Quanta Master fluorimeter. Excitation spectra were monitored at 530 nm and emission spectra were measured by excitation at 488 nm and 405 nm. Slit widths used gave 8 nm bandpass for excitation and 44 nm bandpass for emission. Absorbance spectroscopy was performed on a Shimadzu 1601 spectrophotometer. Temperature was controlled with a water jacket and monitored using an Omega Thermistor.

HeLa cells [2] = assay: NR rescue of mitochondrial NAD+ in HeLa cells depleted of NMNAT2; type: cell-based; conditions: NR 1 mM, 24 hours, NMNAT2 depletion
Source text: To confirm this, HeLa cells, which contain very low levels of NMNAT3, were examined. […] Despite its low expression, NMNAT2 was active in HeLa cells, as its depletion decreased cytoplasmic NAD+ (FIG. 38). […] (FIG. 17B). This depletion was not rescued by addition of NR, implying that cytoplasmic NAD+, and not NMN, is responsible for maintaining mitochondrial NAD+ levels in HeLa cells (FIG. 17B). Thus, there appear to be multiple mechanisms for maintaining mitochondrial NAD+ in different cell types; conversion of NMN by NMNAT3 and active transport of cytoplasmic NAD+. An NAD+ transporter has been identified in bacteria (Haferkamp I et al, Nature 432, 622-625 (2004); incorporated by reference herein), yeast (Todisco S et al, J Biol Chem 281, 1524-1531 (2006); incorporated by reference herein), and plants (Palmieri F et al, J Biol Chem 284, 31249-31259 (2009); incorporated by reference herein), although a mammalian homologue has not yet been identified.
(§2) Live cell imaging was done on a fully motorized Nikon TiE stand with a Yokogawa W1 spinning disk confocal unit. […] Cells were excited at 488 nm and monitored with emission 525/25 nm. For each condition, at least 5 fields containing approximately 50-100 cells were used for quantification of pixel intensity using Metamorph software. […]

HeLa cells [3] = assay: NR in HeLa cells treated with siNAMPT, cytoplasmic sensor; type: cell-based; conditions: NR 1 mM, 24 hours
Protocol: In further experiments, siRNAs that target NAMPT were added to the cells (FIG. 15D). […] Importantly, nicotinamide riboside (NR) increased NAD+ levels in these cells through a parallel pathway that utilizes NR kinase to bypass NAMPT (Bieganowski P and Brenner C, Cell 117, 495-502 (2004); incorporated by reference herein) (FIG. 15E).
Live cell imaging was done on a fully motorized Nikon TiE stand with a Yokogawa W1 spinning disk confocal unit. Instrumentation for this project included a motorized stage in x and y for point-revisiting; z-axis control for fast piezo-based positioning and continuous focus-drift compensation for live cell imaging; dual-pinhole array for improved optical sectioning, a high powered Agilent laser launch; split simultaneous acquisition on two Andor Zyla 5.5 sCMOS cameras; and a 100×1.49 Apo TIRF objective. During imaging, cells were maintained in 5% CO2 at 34° C. Cells were excited at 488 nm and monitored with emission 525/25 nm. For each condition, at least 5 fields containing approximately 50-100 cells were used for quantification of pixel intensity using Metamorph software. The mean intensity per field of each siRNA was normalized to the scramble condition to obtain the normalized intensity measurement.

cytoplasmic sensor = biological target: T2, cytoplasmic sensor (Enterococcus faecalis, UniProt Q837V6, D286N/K120L); assay: NR effect on cytoplasmic sensor fluorescence when NMNAT2 was depleted; type: cell-based; conditions: NR 1 mM, 24 hours
T2 construct: expressed in transfected cells; HeLa cells were also used
Source text: FIG. 28 is a bar graph showing that Nicotinamide riboside (NR) has no direct effect on the fluorescence of the cytoplasmic sensor. The cytoplasmically-localized sensor reported a decrease of cytoplasmic NAD+ following depletion of NMNAT2.

HEK293T cells [4] = assay: NAD+ depletion by FK866 in cells expressing cytoplasmic sensor, live microscopy; type: cell-based
Protocol: (§3) Localization sequences were used to direct the sensor to the nucleus, cytoplasm, and mitochondria (FIG. 15A and FIG. 25A, 25B, 25C). […] Mammalian cells predominantly rely on the NAMPT-dependent salvage pathway for NAD+ biosynthesis (Revollo et al, 2004 supra), and presumably all subcellular compartments would be affected by NAMPT inhibition. To test this idea, clonal HEK293T lines stably expressing the localized sensors or their corresponding cpVenus control were generated. Cells were treated with FK866, a potent inhibitor of NAMPT, and NAD+ depletion in different compartments was monitored by live flow cytometry (FIG. 15B). FK866 increased sensor fluorescence in all compartments, indicating a reduction in NAD+ levels. Fluorescence was also monitored in cells expressing the cytoplasmic sensor using live microscopy (FIG. 15C). Treatment with FK866 began to decrease NAD+ levels in the majority of cells within 1 hour; by 3 hours pockets of NAD+ decreases were observed, which spread throughout the cytoplasm. […]
as §2

HEK293T = assay: NAD+ depletion by FK866 in HEK293T lines expressing localized sensors, live flow cytometry; type: cell-based; conditions: 10 nM FK866, 18 hours; nuclear, cytoplasmic, mitochondrial sensors
Protocol: as §3, with “15C).” for “15C). Treatment with FK866 began to decrease NAD+ levels in the majority of cells within 1 hour; by 3 hours pockets of NAD+ decreases were observed, which spread throughout the cytoplasm.”
(§4) Data was collected on a special order BD LSRFortessa using 488-1 (Ex. 488 nm, Em. 525/50) and 405-2 (ex. 405 nm, Em. 515/20) for the sensor, and Ex. 561-3 (ex. 561, em 670/30) for PI intensity. Cells were gated to exclude debris, a standard doublet-exclusion was performed, and 1×10^4 fluorescent cells were evaluated per condition. Data were analyzed and plotted with FlowJo X. Sensor 488/405 ratiometric values were normalized to the appropriate cpVenus and experimental controls. […]

HEK293T cells [5] = assay: HPLC of perchlorate extracted NAD+ from HEK293T cells; type: cell-based; conditions: 10 nM FK866, 16 hours
Protocol: FIG. 6A is a set of three HPLC spectra from 10 μM purified NAD^+ standard compared to perchlorate extracted NAD^+ from HEK293T cells treated with 0 nM (middle) or 10 nM (bottom) FK866 for 16 hours. Note that NAD^+ is recovered from untreated cells while it is depleted in FK866 treated cells.

[6] = Fluorescence spectroscopy of purified sensor with NAD+ (cell free); type: binding; conditions: for effect of NAD+ on fluorescence (ex. 488 nm): purified protein, NAD+ concentrations up to 1 mM
Protocol: Fluorescence emission spectra were recorded using a PTI steady-state fluorescence spectrophotometer. Excitation spectra were captured at 530 nm while exciting from 350 to 515 nm. Emission spectra were measured by excitation at 405 nm or 488 nm while scanning the fluorescence intensity of 475 to 600 nm.
The sensors and controls were purified in batch format from mammalian HEK293T cells via their N-terminal Flag epitope tag, using anti-Flag M2 Affinity Gel (Sigma) and lysis buffer (50 mM Tris pH 7.4, 150 mM NaCl, 1 mM EDTA, 10 mM NaF, 0.5% NP-40, 1 mM DTT, and Complete Protease Inhibitor cocktail). Protein was eluted with 500 μg/mL 3× Flag peptide and dialyzed against 100 mM Tris pH 7.4, 150 mM NaCl, 0.5 mM DTT, 100 μM PMSF, 1 mM EDTA, and 50% glycerol. Bradford assays were used to quantify the concentration in each batch and aliquots were flash frozen in liquid nitrogen for storage at −80° C.
as §1

[7] = Calibration of cytoplasmic sensor in digitonin permeabilized HEK293T cells, flow cytometry; type: cell-based
Protocol: The free NAD+ concentration in the nucleus and cytoplasm has been debated. To calibrate the sensor, cells were permeabilized with digitonin to allow internal NAD+ levels to equilibrate with concentrations external to the cell and fluorescence monitored by flow cytometry. Equilibration was assessed using propidium iodide (PI), whose molecular weight is similar to that of NAD+ (FIG. 29). […] The mean of the fluorescence ratio (488/405 nm) for the cytoplasmic sensor in non-permeabilized HEK293T cells relative to cpVenus was interpolated to reveal a free NAD+ value of 105.8 μM (95% Cl, 92.3 μM to 121.7 μM). […] To confirm these calculations, flow cytometry was used to examine the fluorescence of the cytoplasmic sensor in populations of HeLa cells that were partially permeabilized (FIG. 16B). When equilibrated with either 500 μM or 1 mM NAD+, cytoplasmic fluorescence of the permeabilized cell population decreased, indicating an increase in NAD+. In contrast, equilibration with media containing no external NAD+ increased fluorescence, likely due to NAD+ diffusion. […]
as §4, with “condition.” for “condition. Data were analyzed and plotted with FlowJo X. Sensor 488/405 ratiometric values were normalized to the appropriate cpVenus and experimental controls.”

[8] = Fluorescence lifetime measurements of the sensor; conditions: 488 nm excitation
Protocol: Fluorescence lifetime measurements were performed on a PicoQuant FluoTime 200 time correlated single photon counting instrument (PicoQuant, Berlin), outfitted with a Hamamatsu micro-channel plate detector. Decays were measured with the polarizers at the magic angle and with 16 nm bandpass emission slits. […] Emission from the samples was collected at 525 nm, with an additional 520 nm long-pass filter on the detector side of the sample. The fluorescence decays were fit by means of PicoQuant software, using an exponential decay model [I(t)=Σi-1^nAie^−t/τ^i] where A, is the amplitude of the i^th component, in counts, in the first range fitting channel and τi is the lifetime of the i^th component.

[9] = NAD+ washout (reversibility of binding to purified sensor); conditions: 500 μM NAD+, elution over buffer exchange column
Protocol: Purified sensor (2 μM) was incubated with either 0μ or 500 μM NAD+ in a total of 75 μL and evaluated for its fluorescence excitation and emission spectra. Each sample was then passed over a pre-equilibrated (50 mM Tris pH 7.4, 150 mM NaCl) micro buffer exchange column (Biorad microbiospin P30), washed, and eluted in […] buffer volume for reevaluation of fluorescence.

T1 sequence (Q837V6 other isoform, or with tags, fused parts or gaps K120L/D286N): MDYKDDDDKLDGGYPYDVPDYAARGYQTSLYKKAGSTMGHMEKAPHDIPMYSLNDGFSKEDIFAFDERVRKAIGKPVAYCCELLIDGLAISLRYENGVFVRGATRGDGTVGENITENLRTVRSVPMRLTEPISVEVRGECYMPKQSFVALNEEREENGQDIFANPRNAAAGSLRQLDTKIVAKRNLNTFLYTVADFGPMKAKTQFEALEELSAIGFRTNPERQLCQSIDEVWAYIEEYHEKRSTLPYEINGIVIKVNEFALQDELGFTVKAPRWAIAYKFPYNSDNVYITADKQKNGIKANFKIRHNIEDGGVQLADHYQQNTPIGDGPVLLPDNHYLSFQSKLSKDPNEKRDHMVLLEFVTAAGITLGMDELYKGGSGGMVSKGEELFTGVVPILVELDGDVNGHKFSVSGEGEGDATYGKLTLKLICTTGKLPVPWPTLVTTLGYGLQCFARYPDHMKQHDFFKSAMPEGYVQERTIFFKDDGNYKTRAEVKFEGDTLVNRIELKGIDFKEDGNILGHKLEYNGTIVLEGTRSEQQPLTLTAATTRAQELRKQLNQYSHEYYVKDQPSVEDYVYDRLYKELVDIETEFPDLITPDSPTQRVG
T2 sequence (Q837V6 other isoform, or with tags, fused parts or gaps K120L/D286N): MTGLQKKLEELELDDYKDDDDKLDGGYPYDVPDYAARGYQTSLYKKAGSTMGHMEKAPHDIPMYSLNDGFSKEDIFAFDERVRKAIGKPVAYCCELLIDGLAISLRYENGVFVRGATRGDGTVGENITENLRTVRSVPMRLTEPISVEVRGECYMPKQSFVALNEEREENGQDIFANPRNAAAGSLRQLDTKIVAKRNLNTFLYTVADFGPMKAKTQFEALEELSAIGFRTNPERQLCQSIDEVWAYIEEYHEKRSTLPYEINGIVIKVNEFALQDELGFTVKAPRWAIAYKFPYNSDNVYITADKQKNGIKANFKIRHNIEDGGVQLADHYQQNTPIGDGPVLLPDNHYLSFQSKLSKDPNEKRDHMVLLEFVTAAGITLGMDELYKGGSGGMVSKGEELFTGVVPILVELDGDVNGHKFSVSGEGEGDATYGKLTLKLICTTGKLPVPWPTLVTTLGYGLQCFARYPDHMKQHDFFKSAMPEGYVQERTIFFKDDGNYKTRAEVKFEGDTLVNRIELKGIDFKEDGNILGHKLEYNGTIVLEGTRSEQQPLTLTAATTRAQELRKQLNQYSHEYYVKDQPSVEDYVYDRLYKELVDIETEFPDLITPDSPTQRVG

GAPDH: full-length active human glyceraldehyde 3-phosphate dehydrogenase (AbCam)
sensor fluorescence upon GAPDH addition [1]: almost immediate recovery of fluorescence

NC(=O)c1ccc[n+]([C@@H]2O[C@H](COP(=O)([O-])OP(=O)(O)OC[C@H]3O[C@@H](n4cnc5c(N)ncnc54)[C@H](O)[C@@H]3O)[C@@H](O)[C@H]2O)c1 [NAD+, nicotinamide adenine dinucleotide]
effect of substrate on sensor fluorescence / recognition by the sensor (NAD+ sensor): decreased sensor fluorescence

NC(=O)c1ccc[n+]([C@@H]2O[C@H](CO)[C@@H](O)[C@H]2O)c1 [NR, nicotinamide riboside]
effect of substrate on sensor fluorescence / recognition by the sensor (NAD+ sensor): not recognized | rescue of decreased mitochondrial NAD+ (HeLa cells [2]): not rescued | NAD+ levels (HeLa cells [3]): increased | nonspecific effect on sensor fluorescence (cytoplasmic sensor): did not alter

O=C(/C=C/c1cccnc1)NCCCCC1CCN(C(=O)c2ccccc2)CC1 [FK866]
time at which NAD+ levels began to decrease in the majority of cells (HEK293T cells [4]): ≤ 1 h | sensor fluorescence in all compartments (indicating reduction in NAD+ levels) (HEK293T): increased | NAD+ recovered by HPLC (HEK293T cells [5]): depleted

cpVenus: circularly permuted version of Venus fluorescent protein, control
effect of NAD+ on fluorescence (ex. 488 nm) [6]: minimally affected | effect of NAD+ on fluorescence in permeabilized cells [7]: minimally affected

sensor: NAD+ biosensor polypeptide: FLAG, HA, LigA 78-317 fragment, cpVenus, linker, LigA 2-70 fragment
effect of NAD+ on fluorescence lifetime [8]: did not affect | change in the Kd value with temperature ([6]; between 20-37° C.): no significant changes | Kd ([6]; in vitro, purified sensor, 488 nm, read-out: apparent Kd(NAD+)): ~65 µM | NAD+-dependent responses across pH ([6]; pH 6.5-8.0): similar | effect of NAD+ on fluorescence (ex. 488 nm) [6]: decreased | effect of NAD+ binding on second excitation peak at 405 nm ([6]; purified sensor): unaffected | reversibility of NAD+ binding [9]: reversible
